The source of these data is patent US8440701B2, “Trisubstituted 1,2,4 triazoles” (Janssen Pharmaceutica NV, priority 2007, dated 2013).

For data set [1], the target named is T1, hα7-wt nAChR (Homo sapiens, UniProt P36544).
T1 construct: expressed in transfected cells; host or cells: GH4C1 cells (recombinant, stably over-expressing)
Put plainly: Ca2+ flux imaging (FDSS), potentiation of choline response. Conditions: hα7-wt nAChR-expressing GH4C1 cells; potentiation of 100 μM choline; compounds 0.01 μM to 30 μM. The class given is cell-based. The method, then:
Ca^2+ Flux Imaging (FDSS)
• Hanks buffered saline solution (HBSS, Invitrogen, Belgium), supplemented with 10 mM HEPES (Invitrogen, Belgium), CaCl2 to a final concentration of 5 mM, 0.1% Bovine serum albumin (Sigma-Aldrich NV, Belgium). b) Calcium-Sensitive Dye—Fluo-4AM • Fluo-4AM (Molecular Probes, USA) was dissolved in DMSO containing 10% Pluronic acid (Molecular Probes, USA) to give a stock solution which was diluted in assay buffer supplemented with 5 mM probenicid (Sigma, Aldrich NV, Belgium) to give a final concentration of 2 μM. c) 384-Well Plates • Black 384 well plate black/clear plates, PDL pre-coated (Corning, Incorporated, USA) d) Calcium Flux Measurement • A Functional drug screening system (FDSS, Hamamatsu) was used to measure intracellular free-calcium flux signals. Method
Monolayers of hα7-wt nAChR-expressing GH4C1 cells were grown in multi-well plates, in particular black-sided, transparent bottomed 384 well plates coated with poly-D-lysine for 24 hours prior to loading with a fluorescent calcium indicator, in a particular embodiment loading with fluo-4AM for up to 120 minutes.
PAM activity was detected in real time by applying the compound to be tested to the loaded cells along with a α7 nicotinic receptor agonist during constant monitoring of the cellular calcium mobilization by fluorescence in a FDSS. Compounds giving peak fluorescent responses greater than the response due to agonist alone, were considered to be α7 nAChR PAM's. In a particular embodiment, the α7 nicotinic receptor agonist was choline, a more particular embodiment choline applied at a sub-maximal concentration of 100 μM. In a further setting of the present invention the compounds to be tested were applied prior to the α7 nicotinic receptor agonist, in a particular embodiment up to 10 minutes prior to the agonist.
A control response to choline was calculated on each plate from the difference in peak in fluorescence in wells receiving either choline or assay buffer alone. Compounds of the present invention were tested at a concentration range from 0.01 μM to 30 μM. Compounds were considered to have an interesting activity when they potentiated the choline signal at least with 200% when tested at a concentration of 30 μM (the efficacy of 100 μM choline was defined as 100% in the absence of a PAM).
EC50 values (potency), maximal effect (% efficacy), and Hill slopes were estimated by fitting the sigmoidal equation to the data using GraphPad Prism (GraphPad Software, Inc., San Diego, Calif.). An EC50 (or pEC50) was determined as a concentration relating to half the maximal effect, when a clear sigmoidal curve with top plateau was obtained.

Data set [2] has as its target T1, hα7-wt nAChR. Put plainly: Whole-cell voltage-clamp recording, PAM type classification. The class given is cell-based. Further details: key: Type 1 compounds enhance the effect size of the current elicited by 1 mM choline but minimally alter the kinetics of the receptor.; Type 2 compounds enhance the effect size of the current elicited by 1 mM choline while reducing the rate and/or the extent of desensitization.; Type 3 compounds enhance the effect size of the current elicited by 1 mM choline. When tested at higher concentrations up to 10 μM they completely inhibit desensitization, in particular a 1 mM choline application of 250 milliseconds.; Type 4 compounds allow for an initial desensitization of the receptor followed by a re-opening of the receptor during agonist application. Conditions: qualitative kinetic properties; 1 mM choline; hα7-wt nAChR-expressing GH4C1 cells. The method, then: The compounds of the present invention are classified as type 1-4, based on qualitative kinetic properties, as determined by whole-cell voltage-clamp recordings. This classification is based on the effect of an α7 PAM compound, as described hereinbefore, on the signal elicited by an agonist application. In particular, said agonist is choline at a concentration of 1 mM. In a preferred experimental setting, said α7 PAM compound and choline are simultaneously applied to the cell, as described hereinafter. Desensitization is defined as the closure of the receptor upon activation during the application of the agonist in whole-cell voltage-clamp electrophysiology measurements seen as the reduction of the […] current after initial activation by the agonist.
The definition of the PAM types 1-4 is described hereinafter: • Type 1 compounds enhance the effect size of the current elicited by 1 mM choline but minimally alter the kinetics of the receptor. In particular, the rate and the extent of desensitization, elicited by the agonist, is not affected. The compound-modulated response to 1 mM choline, therefore, is a close to linear scaling of the 1 mM choline response in absence of the α7 PAM compound. • Type 2 compounds enhance the effect size of the current elicited by 1 mM choline while reducing the rate and/or the extent of desensitization. • Type 3 compounds enhance the effect size of the current elicited by 1 mM choline. […] At low-potency concentrations of the α7 PAM compound, the agonist-induced activation, which is followed by desensitization, can still be separated from the compound-induced re-opening as an initial inward current-maximum. At higher potency concentrations of the α7 PAM compound, the re-opening occurs faster than the closure due to desensitization so that the initial current-maximum disappears.
The compounds of the present invention also have a potentiating effect on the response to choline when measured by whole-cell voltage-clamp electrophysiology in GH4C1 cells stably over-expressing the human wild-type α7 receptor, as described hereinafter.
Whole-Cell Voltage-Clamp Recording
Whole-cell voltage-clamp recording from mammalian cells has provided a powerful means of assessing the function of membrane proteins thought to be subunits of ligand-gated ion channels. Activation of such proteins by endogenous or exogenous ligands causes opening of a pore associated with the receptor through which ions flow down their electrochemical gradient. In the case of the hα7-wt nAChR-expressing GH4C1 recombinant cell line the preferential permeability to calcium of this receptor means that calcium flows into the cell upon activation by ACh, choline and other nicotinic ligands giving rise to a calcium current. Since this receptor rapidly desensitizes in the presence of an agonist it is important that an application system is used which is capable of very rapid switching of solutions (<100 ms) to prevent partial or full desensitisation of receptor responses coincident with the time of agonist application. Consequently, a second convenient technique to assess the enhancement of nicotinic efficacy is whole-cell voltage-clamp recording from hα7-wt nAChR-expressing GH4C1 cells coupled with a rapid-application system.
• The external recording solution consisted of 152 mM NaCl, 5 mM KCl, 1 mM MgCl2, 1 mM Calcium, 10 mM HEPES; pH 7.3. The internal recording solution consisted of 140 mM CsCl, 10 mM HEPES, 10 mM EGTA, 1 mM MgCl2, pH 7.3. • b) Patch-clamp recording was carried out using a Patch-clamp amplifier (Multiclamp 700A, Axon Instruments, CA, USA). The membrane potential of hα7-wt nAChR-expressing GH4C1 cells was voltage-clamped in the whole cell configuration (Hamill et al, 1981) with a borosilicate glass electrode of 1.5-3 MΩ tip resistance when filled with the internal recording solution. […]

Structures can show the parent of a compound that is named as a salt.

T1 sequence (P36544 23-502): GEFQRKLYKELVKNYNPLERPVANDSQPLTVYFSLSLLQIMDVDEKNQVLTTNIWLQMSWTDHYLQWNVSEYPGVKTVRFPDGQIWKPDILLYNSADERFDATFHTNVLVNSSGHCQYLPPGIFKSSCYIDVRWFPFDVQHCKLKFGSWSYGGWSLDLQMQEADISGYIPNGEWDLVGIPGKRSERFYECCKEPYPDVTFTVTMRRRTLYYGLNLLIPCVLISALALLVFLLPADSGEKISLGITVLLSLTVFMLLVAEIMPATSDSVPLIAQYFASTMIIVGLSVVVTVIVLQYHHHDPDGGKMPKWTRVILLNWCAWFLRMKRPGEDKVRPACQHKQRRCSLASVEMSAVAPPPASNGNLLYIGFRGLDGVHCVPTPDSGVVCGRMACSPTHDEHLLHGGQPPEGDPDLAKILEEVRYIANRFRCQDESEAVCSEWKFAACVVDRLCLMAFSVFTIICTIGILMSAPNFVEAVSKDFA

`CCCC(O)Cn1nc(Nc2ccc(F)c(F)c2)nc1-c1ccnc(C)c1` (single isomer, unassigned) [Compound E15] had a melting point of 133.1 °C. In addition, on hα7-wt nAChR [1], the EC50 is 676 nM. For the same molecule, the PAM_type on hα7-wt nAChR [2] was found to be 1.
Taken in the same sequence, the figures for `CCC(O)Cn1nc(Nc2cc(OC)cc(C(F)(F)F)c2)nc1-c1ccnc(C)c1` (single isomer, unassigned) [Compound E28] were 117.16 °C, 1780 nM and 2.
As for `CCC(O)Cn1nc(Nc2cccc(Cl)c2)nc1-c1cc(C)nc(C)c1` (single isomer, unassigned) [Compound E21], the EC50 on hα7-wt nAChR [1] is 832 nM. Moreover, on hα7-wt nAChR [2], the PAM_type is on record as 2.
Turning to `CC[C@H](O)Cn1nc(Nc2cccc(Cl)c2F)nc1-c1cc(C)nc(C)c1` [Compound E35, (S)-1-[3-(3-Chloro-2-fluoro-phenylamino)-5-(2,6-dimethyl-pyridin-4-yl)-[1,2,4]-triazol-1-yl]-butan-2-ol HCl salt], the EC50 on hα7-wt nAChR [1] is 468 nM.
As for `CC[C@H](O)Cn1nc(Nc2cc(F)cc(OC)c2)nc1-c1ccnc(C)c1` [Compound E36, (S)-1-[3-(3-Fluoro-5-methoxy-phenylamino)-5-(2-methyl-pyridin-4-yl)-[1,2,4]triazol-1-yl]butan-2-ol HCl salt], the EC50 on hα7-wt nAChR [1] is 2090 nM. Besides, on hα7-wt nAChR [2], the PAM_type worked out at 2.
Molecule `CCNc1cc(-c2nc(Nc3cccc(Cl)c3)nn2C[C@@H](O)CC)ccn1` [Compound E2, (S)-1-[3-(3-Chloro-phenylamino)-5-(2-ethylamino-pyridin-4-yl)-[1,2,4]triazol-1-yl]-butan-2-ol] came in with a melting point of 161.99 °C. For the same molecule, at hα7-wt nAChR [1], the EC50 is 355 nM. For the same molecule, at hα7-wt nAChR [2], the PAM_type was 2.
Consider `CCCC(O)Cn1nc(Nc2cccc(Cl)c2)nc1-c1cc(C)nc(C)c1` (single isomer, unassigned) [Compound E24], for which the EC50 on hα7-wt nAChR [1] was 851 nM. Besides, at hα7-wt nAChR [2], the PAM_type was 2.
Turning to `CC[C@H](O)Cn1nc(Nc2cc(OC)cc(C(F)(F)F)c2)nc1-c1cc(C)nc(C)c1` [Compound E30, (S)-1-[5-(2,6-Dimethyl-pyridin-4-yl)-3-(3-methoxy-5-trifluoromethyl-phenylamino)-[1,2,4]triazol-1-yl]-butan-2-ol], the melting point turned out to be 166.05 °C. At hα7-wt nAChR [1], the EC50 was 200 nM. In addition, the PAM_type on hα7-wt nAChR [2] worked out at 2.
Taken in the same sequence, the figures for `CCCCC(O)Cn1nc(Nc2ccc(F)c(F)c2)nc1-c1cc(C)nc(C)c1` (single isomer, unassigned; (+)) [Compound E5, (+)-1-[3-(3,4-Difluoro-phenylamino)-5-(2,6-dimethyl-pyridin-4-yl)-[1,2,4]triazol-1-yl]-hexan-2-ol] were 135 °C, 204 nM and 2.
The molecule `CC[C@H](O)Cn1nc(Nc2ccc(F)c(F)c2F)nc1-c1cc(C)nc(C)c1.Cl` [Compound E33, (S)-1-[5-(2,6-Dimethyl-pyridin-4-yl)-3-(2,3,4-trifluoro-phenylamino)-[1,2,4]triazol-1-yl]-butan-2-ol HCl salt] showed a melting point of 237.44 °C. Further, the EC50 on hα7-wt nAChR [1] is 437 nM.
The molecule `CCCCC(O)Cn1nc(Nc2ccc(F)c(F)c2)nc1-c1cc(C)nc(C)c1` (single isomer, unassigned; (-)) [Compound E4, (−)-1-[3-(3,4-Difluoro-phenylamino)-5-(2,6-dimethyl-pyridin-4-yl)-[1,2,4]triazol-1-yl]-hexan-2-ol] returned a melting point of 134.6 °C. Besides, at hα7-wt nAChR [1], the EC50 was 209 nM.
`CC[C@H](O)Cn1nc(Nc2cc(F)cc(OC)c2)nc1-c1cc(C)nc(C)c1.Cl` [Compound E37, (S)-1-[5-(2,6-Dimethyl-pyridin-4-yl)-3-(3-fluoro-5-methoxy-phenylamino)-[1,2,4]triazol-1-yl]-butan-2-ol HCl salt]: on hα7-wt nAChR [1], the EC50 was 1580 nM. Moreover, the PAM_type at hα7-wt nAChR [2] amounted to 2.
On to `CCCCC(O)Cn1nc(Nc2ccc(F)c(F)c2)nc1-c1ccnc(C)c1` (racemic) [Compound E3, 1-[3-(3,4-Difluoro-phenylamino)-5-(2-methyl-pyridin-4-yl)-[1,2,4]triazol-1-yl]-hexan-2-ol], for which the melting point stood at 137.96 °C.
With `CCC(O)Cn1nc(Nc2cccc(Cl)c2)nc1-c1cc(C)nc(C)c1` (single isomer, unassigned) [Compound E18], the concentration giving a half-maximal response (EC50) on hα7-wt nAChR [1] is 1290 nM. Further, the PAM_type at hα7-wt nAChR [2] was found to be 1.
Take `CC[C@H](O)Cn1nc(Nc2cccc(Cl)c2F)nc1-c1cc(C)nc(C)c1` [Compound E34, (S)-1-[3-(3-Chloro-2-fluoro-phenylamino)-5-(2,6-dimethyl-pyridin-4-yl)-[1,2,4]triazol-1-yl]-butan-2-ol]: the EC50 on hα7-wt nAChR [1] was 316 nM. The PAM_type at hα7-wt nAChR [2] came to 2.
On to `CC[C@H](O)Cn1nc(Nc2ccc(F)c(F)c2F)nc1-c1ccnc(C)c1` [Compound E31, (S)-1-[5-(2-Methyl-pyridin-4-yl)-3-(2,3,4-trifluoro-phenylamino)-[1,2,4]-triazol-1-yl]-butan-2-ol], for which the half-maximal effective concentration (EC50) at hα7-wt nAChR [1] was 550 nM. The PAM_type on hα7-wt nAChR [2] worked out at 2.
In the same order, the values of `CC[C@H](O)Cn1nc(Nc2ccc(F)c(F)c2F)nc1-c1cc(C)nc(C)c1` [Compound E32, (S)-1-[5-(2,6-Dimethyl-pyridin-4-yl)-3-(2,3,4-trifluoro-phenylamino)-[1,2,4]triazol-1-yl]-butan-2-ol] are 513 nM and 2.

As a reminder, the EC50 is the midpoint of the concentration-response curve. The melting point is the temperature of the solid-liquid transition.
